How the values were obtained:
WM 266-4 [1] = assay: WST-1 test (mitochondrial activity); assay type: cell-based, human; conditions: modified peptides, conc 10 µM, untreated = 1
Protocol: (§1) Methods. Human melanoma cell lines SK-MEL-28 and WM 2664 and mouse melanoma cell line B16 were obtained from the American Tissue Culture Collection (ATCC). Cells were cultured according to recommendations of ATCC (DMEM, 10% FCS, penicillin+streptomycin) and used in experiments after two passages in the laboratory. Cells were grown in 24 well plates, each treatment in triplicates. Cells were plated 16 hours prior treatments started. Peptides were added to the media, and media was changed every day during 7 day experiment. […] Methods. Human melanoma cell lines SK-MEL-28 and WM 266-4 were obtained from the American Tissue Culture Collection (ATCC) and were cultured according to recommendations of ATCC (DMEM, 10% FCS, penicillin+streptomycin). Human keratinocytes were obtained from Clonetics and cultured according to manufacturers protocol. Cells were used in experiments after two passages in the laboratory. Cells were grown in 24 well plates, each treatment in triplicates. Cells were plated 16 hours prior treatments started. Peptides were added to the media, and media was changed every day during 7 day experiment. […] WST-1 test was performed to measure mitochondrial activity, which can also be used as a measure of cell number.

Human keratinocytes [2] = assay: Apoptosis, Annexin V-Cy3 Apoptosis Kit; assay type: cell-based; conditions: keratinocyte, modified peptides, conc 10 µM
Human keratinocytes [3] = assay: WST-1 test (mitochondrial activity); assay type: cell-based; conditions: keratinocyte; modified peptides; conc 10 µM; untreated = 1
Protocol: Methods. Human melanoma cell lines SK-MEL-28 and WM 266-4 were obtained from the American Tissue Culture Collection (ATCC) and were cultured according to recommendations of ATCC (DMEM, 10% FCS, penicillin+streptomycin). Human keratinocytes were obtained from Clonetics and cultured according to manufacturers protocol. Cells were used in experiments after two passages in the laboratory. Cells were grown in 24 well plates, each treatment in triplicates. Cells were plated 16 hours prior treatments started. Peptides were added to the media, and media was changed every day during 7 day experiment. […] WST-1 test was performed to measure mitochondrial activity, which can also be used as a measure of cell number.

Human keratinocytes [4] = assay: Cell counting after 7 day peptide treatment; assay type: cell-based; conditions: keratinocyte, modified peptides, conc 10 µM, start count 10
Protocol: (§2) Methods. Human melanoma cell lines SK-MEL-28 and WM 266-4 were obtained from the American Tissue Culture Collection (ATCC) and were cultured according to recommendations of ATCC (DMEM, 10% FCS, penicillin+streptomycin). Human keratinocytes were obtained from Clonetics and cultured according to manufacturers protocol. Cells were used in experiments after two passages in the laboratory. Cells were grown in 24 well plates, each treatment in triplicates. Cells were plated 16 hours prior treatments started. Peptides were added to the media, and media was changed every day during 7 day experiment. CPP concentration was 10 μM. For cell counting, cells were trypsinized (0.25% Trypsin, 2 mM EDTA) in Ca, Mg free PBS. Cells were precipitated and resuspended in 100 μl of PBS, and 5 μl were removed for counting.

SK-MEL-28 [5] = assay: Cell counting after 7 day peptide treatment; assay type: cell-based, human; conditions: conc 10 µM, start count 10
Protocol: as §2, with “The ability to block interaction of MITF, SOX10 and STAT3 with active transcriptional complex and inhibit proliferation and stimulate apoptosis of melanoma cells were tested on human melanoma cell lines SK-MEL-28 and WM 266-4, and mouse melanoma cell line B16. Methods. Human melanoma cell lines SK-MEL-28 and WM 2664 and mouse melanoma cell line B16 were obtained from the American Tissue Culture Collection (ATCC). Cells were cultured according to recommendations of ATCC (DMEM, 10% FCS, penicillin+streptomycin) and used in experiments after two passages in the laboratory. Cells were grown in 24 well plates, each treatment in triplicates. Cells were plated 16 hours prior treatments started. Peptides were added to the media, and media was changed every day during 7 day experiment. CPP concentration was 10 μM For cell counting, cells were trypsinized (0.25% Trypsin, 2 mM EDTA) in Ca^+2, Mg^+2 free PBS. Cells were precipitated and resuspended in 100 μl of PBS, and 5 μl were removed for counting Methods.” for “Methods.”

WM 266-4 [6] = assay: Cell counting after 7 day peptide treatment; assay type: cell-based, human; conditions: conc 10 µM, start count 10
Protocol: as §2, with “The ability to block interaction of MITF, SOX10 and STAT3 with active transcriptional complex and inhibit proliferation and stimulate apoptosis of melanoma cells were tested on human melanoma cell lines SK-MEL-28 and WM 266-4, and mouse melanoma cell line B16. Methods. Human melanoma cell lines SK-MEL-28 and WM 2664 and mouse melanoma cell line B16 were obtained from the American Tissue Culture Collection (ATCC). Cells were cultured according to recommendations of ATCC (DMEM, 10% FCS, penicillin+streptomycin) and used in experiments after two passages in the laboratory. Cells were grown in 24 well plates, each treatment in triplicates. Cells were plated 16 hours prior treatments started. Peptides were added to the media, and media was changed every day during 7 day experiment. […] Cells were precipitated and resuspended in 100 μl of PBS, and 5 μl were removed for counting Methods.” for “Methods.”, “CPP concentration was 10 μM.” left out

B16 melanoma = assay: Mouse tumor xenograft model, peptide membrane patch on skin melanoma; assay type: in vivo; conditions: patch immersed in 100 μM peptide solution, start = 100; for tumor size change (%) 1 d: B16 s.c. in C57BL/6 mice
Protocol: The effect of modified mimicking peptides was analyzed by inducing melanomas in mouse skin by grafting suspension of melanoma cells. […] Tumor diameter was measured 1, 2, 3, 5, 7 days after treatmet started.
Methods. Mouse melanoma cell line B16 was cultured as described above, and approximately 5×10^6 cells were injected subcutaneously into the left and right limbs of three C57BL/6JOIaHsd mice.
Administration. Cellulose membrane was immersed in a solution of peptides (100 μM). Size of tumor was measured 1, 2, 3, 5 and 7 days following patch treatment. At the same time new patch was applied. All experiments were done in triplicates (3 animals per group).

SK-MEL-28 [7] = assay: WST-1 test (mitochondrial activity); assay type: cell-based, human; conditions: conc 10 µM, untreated = 1
B16 [8] = assay: Cell counting after 7 day peptide treatment; assay type: cell-based, mouse; conditions: CPP mimicking peptides, conc 10 µM, start count 10
Protocol: The ability to block interaction of MITF, SOX10 and STAT3 with active transcriptional complex and inhibit proliferation and stimulate apoptosis of melanoma cells were tested on human melanoma cell lines SK-MEL-28 and WM 266-4, and mouse melanoma cell line B16. Methods. Human melanoma cell lines SK-MEL-28 and WM 2664 and mouse melanoma cell line B16 were obtained from the American Tissue Culture Collection (ATCC). Cells were cultured according to recommendations of ATCC (DMEM, 10% FCS, penicillin+streptomycin) and used in experiments after two passages in the laboratory. Cells were grown in 24 well plates, each treatment in triplicates. Cells were plated 16 hours prior treatments started. Peptides were added to the media, and media was changed every day during 7 day experiment. […] Cells were precipitated and resuspended in 100 μl of PBS, and 5 μl were removed for counting

WM 266-4 [9] = assay: Apoptosis, Annexin V-Cy3 Apoptosis Kit; assay type: cell-based, human; conditions: conc 10 µM
Protocol: as §1, with “Apoptosis” for “WST-1 test”, “analyzed using Biovision Annexin V-Cy3 Apoptosis Kit according” for “performed”, “manufacturers protocols.” for “measure mitochondrial activity, which can also be used as a measure of cell number.”

Dct/Trp2 promoter [10] = assay: Transient CAT assay, Dct/Trp2 proximal promoter-CAT construct in WM 266-4; assay type: cell-based, human; conditions: CPP concentration 10 μM
Protocol: (§3) SOX10 and MITF interact with the proximal promoter of Dct/Trp2 gene and induces its activity (Ludwig A. et al., FEBS Lett. 556 (1-3):236-244 (2004)). Thus, a Dct/Trp2 proximal promoter reporter construct was used to analyze effect of mimicking peptides on promoter activity using transient CAT assay.
(§4) Methods. Human melanoma cell lines SK-MEL-28 and WM 266-4 were obtained from the American Tissue Culture Collection (ATCC) and were cultured according to recommendations of ATCC (DMEM, 10% FCS, penicillin+streptomycin). Dct/Trp2 proximal promoter-CAT construct (Ludwig et al., supra) was used in all experiments.
(§5) Cells were transfected by using FuGene reagent (Roche Molecular Biochemicals) according to manufacturer's instructions. Freeze-thaw lysates of cells collected 48 h after the transfection were assayed for CAT activity as described (Pothier, F. et al., DNA Cell Biol. 11(1):83-90 (1992)). At least two different DNA preparations were tested for each plasmid. To normalize the transfection efficiencies, cells were cotransfected with pON260 expressing β-galactosidase (Spaete, R. R. and Mocarski, E. S., J. Virol. 54(3):817-24 (1985); Spaete, R. R. and Mocarski, E. S., J. Virol. 56(1):13543 (1985)). All the CAT activities were normalized to total protein and β-galatosidase activity.
(§6) Following transfection, cells were grown in 6 well plates, each treatment in triplicates. Peptides were added to the media and media was changed every day during the 7 day experiment. CPP concentration was 10 μM.

B16 [11] = assay: Apoptosis, Annexin V-Cy3 Apoptosis Kit; assay type: cell-based, mouse; conditions: CPP mimicking peptides, conc 10 µM
Protocol: Methods. Human melanoma cell lines SK-MEL-28 and WM 2664 and mouse melanoma cell line B16 were obtained from the American Tissue Culture Collection (ATCC). Cells were cultured according to recommendations of ATCC (DMEM, 10% FCS, penicillin+streptomycin) and used in experiments after two passages in the laboratory. Cells were grown in 24 well plates, each treatment in triplicates. Cells were plated 16 hours prior treatments started. Peptides were added to the media, and media was changed every day during 7 day experiment. CPP concentration was 10 μM Apoptosis was analyzed using Biovision Annexin V-Cy3 Apoptosis Kit according to manufacturers protocols.

Dct/Trp2 promoter [12] = assay: Transient CAT assay, Dct/Trp2 proximal promoter-CAT construct in SK-MEL-28; assay type: cell-based, human; conditions: CPP concentration 10 μM
Protocol: as §3, §4, §5, §6

[13] = modified (inhibitor/MMP2, MMP9 site) peptides

| Sequence | WST-1 7 d (WM 266-4 [1]) | Apoptosis 7 d/% (Human keratinocytes [2]) | WST-1 7 d (Human keratinocytes [3]) | Cell Count 7 d (Human keratinocytes [4]) | Cell Count 7 d (SK-MEL-28 [5]; [13]) | Cell Count 7 d (WM 266-4 [6]; modified peptides) | tumor size change (%) 1 d (B16 melanoma) | tumor size change (%) 2 d (B16 melanoma) | tumor size change (%) 3 d (B16 melanoma) | tumor size change (%) 5 d (B16 melanoma) | tumor size change (%) 7 d (B16 melanoma) | WST-1 7 d (SK-MEL-28 [7]; modified peptides) | also measured |
| --- | --- | --- | --- | --- | --- | --- | --- | --- | --- | --- | --- | --- | --- |
| TTGGSSPQGLEAKRPKKRKVRRRVKRPMNAFMVWAQAARRKLADQY [SOX10-int1M] | 0.7 | 6% | 0.93 | 37 | 35 | 22 | 111% | 127% | 146% | 171% | 224% | 0.72 |  |
| TTGGSSPQGLEAKRPKKRKVRRRQLMLEPYALDMSRIRVLSESLGLATQSG [Scr-int1M, reference compound] | 1 |  | 1 | 40 | 48 | 30 | 109% | 147% | 175% | 211% | 272% | 1 |  |
| RPKKRKVRRRKMQQLEQMLTALDQMRRSIVSELAGLLS [STAT3-int1] |  |  |  |  |  |  |  |  |  |  |  |  | Cell Count 7 d (B16 [8]): 59; Apoptosis 7 d/% (WM 266-4 [9]; CPP mimicking peptides): 10%; Dct/Trp2 promoter activity (CAT assay) (Dct/Trp2 promoter [10]): do not have significant effect; Apoptosis 7 d/% (B16 [11]): 28%; Dct/Trp2 promoter activity (CAT assay) (Dct/Trp2 promoter [12]): do not have significant effect; Cell Count 7 d (SK-MEL-28 [5]; CPP mimicking peptides): 40; Cell Count 7 d (WM 266-4 [6]; CPP mimicking peptides): 34; WST-1 7 d (SK-MEL-28 [7]; CPP mimicking peptides): 0.79 |
| TTGGSSPQGLEAKRPKKRKVRRRKMQQLEQMLTALDQMRRSIVSELAGLLS [STAT3-int1M] | 0.91 | 2% | 1 | 41 | 42 |  | 109% | 124% | 154% | 181% | 217% | 0.84 | Apoptosis 7 d/% (WM 266-4 [9]; modified peptides): 13% |

Source: patent US20060014712A1, “Controlled delivery of therapeutic compounds” (CeMines, Inc., priority 2004, published 2006)
